# Source: publication PMC8724172, “The effect of potent CYP2D6 inhibition on the pharmacokinetics and safety of deutetrabenazine in healthy volunteers” (European Journal of Clinical Pharmacology, 2021)
# Assay: Open-label sequential drug-drug interaction study: plasma pharmacokinetics of deutetrabenazine and its metabolites without and with steady-state paroxetine
# Set-up: AUC0−t lower by a factor in presence of paroxetine / Cmax lower by a factor in presence of paroxetine: unit not given beside the values
# Conditions: in vivo
# Source text: This was an open-label sequential drug-drug interaction study in 24 healthy adult subjects who were CYP2D6 extensive metabolizers (EM) or CYP2D6 intermediate metabolizers (IM); Supplemental Table S1 provides the genotypes and phenotypes of the subjects.
# Subjects checked into the clinic on day 1 and were confined through day 14. […] Those who met inclusion/exclusion criteria received a single dose of deutetrabenazine on day 1 followed by a 72-h washout. Subjects then received paroxetine on days 4 to 12 to achieve steady-state plasma concentrations of paroxetine by day 11. On day 11, another single dose of deutetrabenazine was administered. Triplicate 12-lead digital electrocardiograms (ECGs) were collected predose and for 10 h following deutetrabenazine dosing on day 1, and for 10 h on day 11, following paroxetine administration on day 10. Blood samples for measurement of plasma concentrations of deutetrabenazine and its metabolites were obtained on days 1 and 11 (predose, 1, 2, 2.5, 3, 3.5, 4, 4.5, 5, 6, 7, 8, 10, 12, and 16 h), days 2 and 12, at 24 and 36 h, days 3 and 13, at 48 and 60 h and days 4 and 14, at 72 h. Paroxetine trough levels were obtained pre-dose on days 9, 10, 11, and 12, and on day 13 at 24 h post the final paroxetine dose on day 12. Blood and urine samples were collected for clinical laboratory testing (hematology, serum chemistries, and urinalysis) at admission and after at least 10 h fasting and at study completion on day 14 or upon early withdrawal.
# All participants received the following treatments, deutetrabenazine 22.5-mg oral dose as one 15-mg tablet + one 7.5-mg tablet on days 1 and 11 and one paroxetine 20 mg (Cadila Healthcare Ltd.) oral tablet on days 4 through 12. The deutetrabenazine 22.5-mg dose was administered with 237 mL of water in the morning approximately 30 min after a standardized breakfast meal with moderate fat content (35%). No food was allowed for at least 4 h postdose, and subjects were asked to remain upright for at least 4 h postdose, unless medically necessary.
# Paroxetine 20 mg was administered in the morning with 237 mL water for 9 days (days 4 to 12) to ensure steady-state levels. On days 4 to 10 and 12, the paroxetine dose was administered in a fed state 30 min after breakfast. On day 11, as paroxetine can be administered without regard to food, subjects took the paroxetine dose under fasting conditions (at least 1 h prior to breakfast and 1.5 h prior to deutetrabenazine administration) following an overnight fast of at least 10 h. Subjects were asked to remain upright for at least 1 h after the paroxetine dose, unless medically necessary.
# Validated liquid chromatography/tandem mass spectrometry methods were applied to assess plasma concentrations of paroxetine, deutetrabenazine, α- and β-HTBZ metabolites, and the O-desmethyl metabolites of α- and β-HTBZ. This was performed on a Sciex API 4000 instrument, equipped with a Turbo Ion Spray ion source operated in the positive ion mode and interfaced to a Shimadzu HPLC system fitted with a Waters XBridge C18 reverse phase column (3.5 µm; 50 × 2.1 mm) for paroxetine, deutetrabenazine, α-HTBZ and β-HTBZ or a Phenomenex Kinetex column (2.6 µm; 100 × 2.1 mm) for the O-desmethyl metabolites. The validated assay ranges were as follows: paroxetine 0.500 to 50.0 ng/mL, deutetrabenazine 0.100 to 10.0 ng/mL, deuterated α- and β-HTBZ 0.500 to 100 ng/mL, and 9-O- and 10-O-desmethyl metabolites of α-HTBZ and β-HTBZ 0.5 to 50.0 ng/mL. The methods were developed and validated by CPR Pharma Services, Pty, Ltd Australia, as described earlier.
# Plasma concentrations, below the limit of quantitation (BLQ) of the assay, were designated a value of zero for initial and time points occurring at the end of the profile. For sampling time points between two quantifiable concentrations, plasma concentrations BLQ followed by a measurable concentration were set to the limit of quantitation of the assay.
Cmax (human),"AUC0-t (human, im)","Cmax (human, im)","Tmax (human, im)","Cmax (human, po, 22.5 mg)",AUC0−t lower by a factor in presence of paroxetine,Cmax lower by a factor in presence of paroxetine,"t1/2 (human, im)",Quantifiability of plasma concentrations,SMILES
1.4 (18) ng/mL,13.8 (65) ng × h/mL,1.2 (45) ng/mL,5.5 (3.5–12.0) h,1.3 (28) ng/mL,0.3,0.4,,,COc1cc2c(cc1O)CCN1C[C@@H](CC(C)C)[C@H](O)C[C@H]21 [9-O-desmethyl α-HTBZ]
4.5 (20) ng/mL,105 (33) ng × h/mL,4.2 (45) ng/mL,7.0 (4.0–24.0) h,4.4 (29) ng/mL,0.7,0.4,16.8 (13) (n = 7) h,,COc1cc2c(cc1O)CCN1C[C@@H](CC(C)C)[C@@H](O)C[C@H]21 [9-O-desmethyl β-HTBZ]
,,,,,,,,appeared transiently in some subjects,COc1cc2c(cc1O)[C@H]1C[C@H](O)[C@H](CC(C)C)CN1CC2 [10-O-desmethyl β-HTBZ]
